Experimental data published in patent EP0360750A2, “Novel herbicide tolerant plants” (CIBA-GEIGY AG, priority 1988, dated 1990).

Experiments:
AHAS = AHAS enzyme assay: AHAS activity remaining in the presence of herbicides or amino acids; type: biochemical, Nicotiana tabacum; conditions: for % AHAS activity remaining with Ile / % AHAS activity remaining with Leu / % AHAS activity remaining with Val: 10mM
Protocol: The weight of the material to be assayed is determined either by weighing the pellet obtained by refrigerated centrifugation of a cell suspension or by weighing callus, leaf or root tissue placed into liquid nitrogen and macerated to a fine powder. One volume (in ml) of cold homogenization buffer equal to the weight (in g) of the cell suspension pellet or equal to two times the weight (in g) of tissue is added and the mixture is passed through a French pressure cell at 15,000 psi or is ground with sand in a mortar and pestle. All subsequent steps are carried out keeping the material cold (about 4°C). The cells are disrupted at 16,000 psi, collecting the cell exudate into a container on ice. The exudate is centrifuged 5 min at 10,000 rpm to clear the cell debris. The volume of the supernate is measured and enzyme grade ammonium sulfate added to 25 % saturation (144 mg (NH₄)₂SO₄ per ml supernate). The mixture is stirred on ice for 15 min, then centrifuged for 5 min at 10,000 rpm. The pellet is discarded and the supernate adjusted to 50 % saturation with ammonium sulfate (158 mg (NH₄)₂SO₄ per ml supernate). After stirring on ice for 15 min, the pellet is collected by centrifugation at 10,000 rpm for 5 min. The obtained pellet is dissolved in 1-2 ml of column buffer. The extract is desalted by application to a Sephadex G50 column equilibrated with column buffer. The sample is eluted with column buffer, collecting approximately 2 ml of sample for each ml of sample applied to the column.
Homogenization buffer and column buffer are chosen depending on the source of the AHAS to be assayed: Tobacco homogenization buffer consists of: 50 mM NaH₂PO₄ buffer pH 7.0, 0.5 mM EDTA pH 7.0, 0.5 mM MgCl₂, 1 mM sodium pyruvate pH 7.0, 10 µM FAD, 1 mM PMSF, 10 % glycerol. Maize homogenization buffer consists of: 50 mM Tris pH 7.5, 1 mM EDTA pH 7.5, 5 mM MgCl₂, 20 mM sodium pyruvate pH 7.0, 10 µM FAD, 1 mM PMSF, 1 mM DTT, 1 mM TPP, 10 % glycerol. Tobacco column buffer consists of: 50 mM NaH₂PO₄ buffer pH 7.0, 0.1 mM EDTA, 0.5 mM MgCl₂, 10 µM FAD, 1 mM PMSF, 10 % glycerol. Maize column buffer consists of: 50 mM Tris pH 7.5, 5 mM MgCl₂, 10 µM FAD, 0.1 mM EDTA, 1 mM PMSF, 1 mM DTT, 10 % glycerol.
5-50 µl of an extract prepared according to EXAMPLE 30 are dissolved in a total volume of 0.5 ml of reaction mixture (see below). The mixture is incubated for 30 min at 37°C. The reaction is stopped by the addition of 50 µl of 6 N H₂SO₄. The mixture is incubated for 15 min at 60°C, then treated with 625 µl of a-naphthol reagent (500 µl 5 % a-naphthol in 2.5 M NaOH and 125 µl 25 mg/ml creatine) and incubated another 15 min at 60°C. If a precipitate has formed, this is spun out, and the absorbance measured at 520 nm. The amount of acetoin formed is calculated from a standard curve developed using 0.4 µg to 10 µg acetoin. The specific activity is expressed as pKat acetoin per mg protein.
1-20 µl of a sample are placed in a ELISA plate well with a total volume of 0.15 ml of reaction mixture. The mixture is reacted for 30 min at 37°C. The reaction is stopped by the addition of 50 µl of 2.4 M H₂SO₄ containing 1 % creatine. The mixture is incubated for 30 min at 60°C. Any precipitate present is separated by centri fugation. 150 µl of the assay mixture are transferred to a new ELISA plate, treated with 100 µl 10 % a-naphthol in 5M NaOH and incubated another 20 min at 60°C. The absorbance is measured at 520 nm, and the specific activity expressed as under a).
Ten point inhibition curves are generated by determining AHAS activity in the presence of sulfonylurea, imidazolinone and triazolopyrimidine herbicides. The sulfonylurea and triazolopyrimidine herbicides are included in the reaction mixture to give a range of final concentrations of the inhibitors between 1 nM and 10,000 nM. The imidazolinone herbicides are included in the concentration ranges of 10 nM to 100,000 nM. […]

[1] = test system: transgenic tobacco plants; assay: Leaf disc herbicide tolerance test of transgenic tobacco plants; type: cell-based, cv. Havana 38; conditions: after 40 days
Protocol: After 3-6 weeks of growth in light, the cultured tissue pieces are evaluated for their ability to form green shoots in the presence of the inhibitor. In analogy, sections from stems, petioles, roots, cotyledons, and hypocotyls are used. The herbicide tolerance of the transgenic plants obtained according to EXAMPLE 23 and 24 using CGA1402 are essentially determined as described in EXAMPLE 11a. Leaf discs are cut from different transgenic plants, weighed and then placed, lower side up, onto solidified MSBN medium containing 0, 10, 30, 100 and 300 ppb of SU872. The culture plates are incubated in the light at 25-28°C. […] Discs are inspected visually and evaluated for shoot and/or callus formation.

CC[C@H](C)[C@H](N)C(=O)O [Ile, isoleucine]
% AHAS activity remaining with Ile (AHAS; strain S3 (Table 2)): 80%
% AHAS activity remaining with Ile (AHAS; strain Su 6 (Table 2)): 66%
% AHAS activity remaining with Ile (AHAS; strain Su 8 (Table 2)): 95%
% AHAS activity remaining with Ile (AHAS; strain Su 10 (Table 2)): 102%
% AHAS activity remaining with Ile (AHAS; strain Su 20 (Table 2)): 58%
% AHAS activity remaining with Ile (AHAS; strain Su 25 (Table 2)): 100%
% AHAS activity remaining with Ile (AHAS; strain Su 27 (Table 2)): 92%
% AHAS activity remaining with Ile (AHAS; strain Su 41 (Table 2)): 97%

CC(C)C[C@H](N)C(=O)O [Leu, leucine]
% AHAS activity remaining with Leu (AHAS; strain S3 (Table 2)): 38%
% AHAS activity remaining with Leu (AHAS; strain Su 6 (Table 2)): 58%
% AHAS activity remaining with Leu (AHAS; strain Su 8 (Table 2)): 61%
% AHAS activity remaining with Leu (AHAS; strain Su 10 (Table 2)): 62%
% AHAS activity remaining with Leu (AHAS; strain Su 20 (Table 2)): 53%
% AHAS activity remaining with Leu (AHAS; strain Su 25 (Table 2)): 84%
% AHAS activity remaining with Leu (AHAS; strain Su 27 (Table 2)): 81%
% AHAS activity remaining with Leu (AHAS; strain Su 41 (Table 2)): 71%

COCCOc1ccccc1S(=O)(=O)NC(=O)Nc1nc(OC)nc(OC)n1 [SU464, 2-(2-methoxyethoxy)-N-[(4,6-dimethoxy-1,3,5-triazin-2-yl)-aminocarbonyl]benzenesulfonamide]
% AHAS activity remaining with SU464 (AHAS; 0.21µM, strain S3 (Table 2)): 44%
% AHAS activity remaining with SU464 (AHAS; 0.21µM, strain Su 6 (Table 2)): 36%
% AHAS activity remaining with SU464 (AHAS; 0.21µM, strain Su 8 (Table 2)): 38%
% AHAS activity remaining with SU464 (AHAS; 0.21µM, strain Su 10 (Table 2)): 37%
% AHAS activity remaining with SU464 (AHAS; 0.21µM, strain Su 20 (Table 2)): 32%
% AHAS activity remaining with SU464 (AHAS; 0.21µM, strain Su 25 (Table 2)): 32%
% AHAS activity remaining with SU464 (AHAS; 0.21µM, strain Su 27 (Table 2)): 39%
% AHAS activity remaining with SU464 (AHAS; 0.21µM, strain Su 41 (Table 2)): 32%
% AHAS activity remaining with SU464 (AHAS; 10.6µM, strain S3 (Table 2)): 24%
% AHAS activity remaining with SU464 (AHAS; 10.6µM, strain Su 6 (Table 2)): 15%
% AHAS activity remaining with SU464 (AHAS; 10.6µM, strain Su 8 (Table 2)): 16%
% AHAS activity remaining with SU464 (AHAS; 10.6µM, strain Su 10 (Table 2)): 20%
% AHAS activity remaining with SU464 (AHAS; 10.6µM, strain Su 20 (Table 2)): 21%
% AHAS activity remaining with SU464 (AHAS; 10.6µM, strain Su 25 (Table 2)): 18%
% AHAS activity remaining with SU464 (AHAS; 10.6µM, strain Su 27 (Table 2)): 19%
% AHAS activity remaining with SU464 (AHAS; 10.6µM, strain Su 41 (Table 2)): 21%

COC(=O)c1ccccc1S(=O)(=O)NC(=O)Nc1nc(OC(F)F)cc(OC(F)F)n1 [SU872, 2-methoxycarbonyl-N-[(4,6-bis{difluoromethoxy}-pyrimidin-2-yl)-aminocarbonyl]benzenesulfonamide]
% AHAS activity remaining with SU872 (AHAS; 0.21µM, strain S3 (Table 2)): 17%
% AHAS activity remaining with SU872 (AHAS; 0.21µM, strain Su 6 (Table 2)): 27%
% AHAS activity remaining with SU872 (AHAS; 0.21µM, strain Su 8 (Table 2)): 32%
% AHAS activity remaining with SU872 (AHAS; 0.21µM, strain Su 10 (Table 2)): 39%
% AHAS activity remaining with SU872 (AHAS; 0.21µM, strain Su 20 (Table 2)): 18%
% AHAS activity remaining with SU872 (AHAS; 0.21µM, strain Su 25 (Table 2)): 20%
% AHAS activity remaining with SU872 (AHAS; 0.21µM, strain Su 27 (Table 2)): 36%
% AHAS activity remaining with SU872 (AHAS; 0.21µM, strain Su 41 (Table 2)): 15%
% AHAS activity remaining with SU872 (AHAS; 10.6µM, strain S3 (Table 2)): 14%
% AHAS activity remaining with SU872 (AHAS; 10.6µM, strain Su 6 (Table 2)): 12%
% AHAS activity remaining with SU872 (AHAS; 10.6µM, strain Su 8 (Table 2)): 12%
% AHAS activity remaining with SU872 (AHAS; 10.6µM, strain Su 10 (Table 2)): 15%
% AHAS activity remaining with SU872 (AHAS; 10.6µM, strain Su 20 (Table 2)): 17%
% AHAS activity remaining with SU872 (AHAS; 10.6µM, strain Su 25 (Table 2)): 18%
% AHAS activity remaining with SU872 (AHAS; 10.6µM, strain Su 27 (Table 2)): 20%
% AHAS activity remaining with SU872 (AHAS; 10.6µM, strain Su 41 (Table 2)): 12%
Mean mg fresh weight per disc ± standard deviation (n=7) ([1]; 10 ppb SU872, plant A3 (transformed with CGA1402, 35S/wild-type Arabidopsis AHAS)): 2151 ± 995 mg
Mean mg fresh weight per disc ± standard deviation (n=7) ([1]; 10 ppb SU872, plant A4 (transformed with CGA1402, 35S/wild-type Arabidopsis AHAS)): 2847 ± 548 mg
Mean mg fresh weight per disc ± standard deviation (n=7) ([1]; 10 ppb SU872, plant D2 (genomic clone of AHAS from chlorsulfuron tolerant mutant GH-50), discs bleached, not enlarged, no callus): 70 ± 14 mg
Mean mg fresh weight per disc ± standard deviation (n=7) ([1]; 10 ppb SU872, plant type E (wild-type tobacco, cv. Havana 38), discs bleached, not enlarged, no callus): 87 ± 19 mg
Mean mg fresh weight per disc ± standard deviation (n=7) ([1]; 30 ppb SU872, plant A3): 180 ± 98 mg
Mean mg fresh weight per disc ± standard deviation (n=7) ([1]; 30 ppb SU872, plant A4): 333 ± 174 mg
Mean mg fresh weight per disc ± standard deviation (n=7) ([1]; 100 ppb SU872, plant A3): 33 ± 29 mg
Mean mg fresh weight per disc ± standard deviation (n=7) ([1]; 100 ppb SU872, plant A4): 19 ± 15 mg

CC(C)[C@H](N)C(=O)O [Val, valine]
% AHAS activity remaining with Val (AHAS; strain S3 (Table 2)): 69%
% AHAS activity remaining with Val (AHAS; strain Su 6 (Table 2)): 82%
% AHAS activity remaining with Val (AHAS; strain Su 8 (Table 2)): 81%
% AHAS activity remaining with Val (AHAS; strain Su 10 (Table 2)): 48%
% AHAS activity remaining with Val (AHAS; strain Su 20 (Table 2)): 75%
% AHAS activity remaining with Val (AHAS; strain Su 25 (Table 2)): 86%
% AHAS activity remaining with Val (AHAS; strain Su 27 (Table 2)): 91%
% AHAS activity remaining with Val (AHAS; strain Su 41 (Table 2)): 83%
